Source: PubChem BioAssay (NCI)
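Growth conditions: 96-well plates. Treatment: test compound, 48 hours, 5 concentrations. Analysis: linear interpolation between bracketing concentrations; unreached endpoints set to highest concentration. Abbreviation: GI50, concentration required for 50% inhibition of growth. TGI: total growth inhibition.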

Legend:
Assay in all cases: NCI tumour cell line growth inhibition, 48 h
[1] = system: UACC-62 melanoma
[2] = system: TK-10 renal
[3] = system: EKVX NSCLC
[4] = system: HOP-92 NSCLC
[5] = system: SW-620 colon
[6] = system: T-47D breast
[7] = system: SNB-19 CNS
[8] = system: SF-268 CNS
[9] = system: HOP-62 NSCLC
[10] = system: OVCAR-5 ovarian

COc1ccc(C(O)c2cc3c(N)c(C(=O)Nc4cccc(Cl)c4)sc3nc2C)cc1 (stereo not given)
GI50 [1]: 2.14 µM | TGI [1]: > 80.2 µM | TGI [2]: > 50.3 µM | GI50 [3]: 1.88 µM | TGI [3]: > 86.9 µM | GI50 [4]: 3.66 µM | TGI [4]: > 39.9 µM | GI50 [5]: 1 µM | TGI [5]: > 38.3 µM | GI50 [6]: 1.15 µM | TGI [6]: 31.9 µM | GI50 [7]: 1.47 µM | TGI [7]: > 46.8 µM | GI50 [8]: 2.79 µM | TGI [8]: > 46.2 µM | GI50 [9]: 0.617 µM | TGI [9]: 19.9 µM | GI50 [10]: 1.98 µM | TGI [10]: > 48.7 µM

Cc1nc2ccc(NC(=O)CCNC(=O)CCCc3ccc(CC(C(=O)O)C(=O)O)cc3)cc2s1
GI50 [1]: > 100 µM | TGI [1]: > 100 µM | GI50 [2]: > 100 µM | TGI [2]: > 100 µM | GI50 [3]: > 100 µM | TGI [3]: > 100 µM | GI50 [4]: > 100 µM | TGI [4]: > 100 µM | GI50 [5]: > 100 µM | TGI [5]: > 100 µM | GI50 [6]: > 100 µM | TGI [6]: > 100 µM | GI50 [7]: > 100 µM | TGI [7]: > 100 µM | GI50 [8]: > 100 µM | TGI [8]: > 100 µM | GI50 [9]: > 100 µM | TGI [9]: > 100 µM | GI50 [10]: > 100 µM | TGI [10]: > 100 µM

C1CC[N-]CC1.CC(=N\O)/C(C)=N/O.CC(=N\O)/C(C)=N/O.OC1[CH-]CCCC1.[Co+2]
GI50 [1]: 18.1 µM | TGI [1]: 41.2 µM | GI50 [2]: 39.8 µM | TGI [2]: > 100 µM | GI50 [3]: 31.1 µM | TGI [3]: > 100 µM | GI50 [4]: 22.2 µM | TGI [4]: 93.1 µM | GI50 [5]: 31.6 µM | TGI [5]: > 100 µM | GI50 [6]: 16.5 µM | TGI [6]: 69.5 µM | GI50 [7]: > 100 µM | TGI [7]: > 100 µM | GI50 [8]: 44.8 µM | TGI [8]: > 100 µM | GI50 [9]: > 100 µM | TGI [9]: > 100 µM | GI50 [10]: > 100 µM | TGI [10]: > 100 µM

CCCCCC[C@H](C)Nc1nc2ccccc2c2occc12
GI50 [1]: 11.6 µM | TGI [1]: 24.1 µM | GI50 [2]: 6.46 µM | TGI [2]: 20.9 µM | GI50 [3]: 2.26 µM | TGI [3]: 7.04 µM | GI50 [4]: 5.18 µM | TGI [4]: 20.2 µM | GI50 [5]: 5.46 µM | TGI [5]: 22.2 µM | GI50 [6]: 33.2 µM | TGI [6]: 61.8 µM | GI50 [7]: 29.7 µM | TGI [7]: > 100 µM | GI50 [8]: > 100 µM | TGI [8]: > 100 µM | GI50 [9]: 11.5 µM | TGI [9]: 23.9 µM | GI50 [10]: 5.54 µM | TGI [10]: 20.3 µM

Cc1nc(Nc2ccccn2)sc1C(=O)/C=C/c1ccc(Cl)cc1
GI50 [1]: 0.631 µM | TGI [1]: 49.8 µM | GI50 [2]: 1.09 µM | TGI [2]: 24.4 µM | GI50 [3]: 0.846 µM | TGI [3]: > 100 µM | GI50 [4]: 1.21 µM | TGI [4]: 31.4 µM | GI50 [5]: 0.445 µM | TGI [5]: > 100 µM | GI50 [6]: 8.68 µM | TGI [6]: > 100 µM | GI50 [7]: 0.556 µM | TGI [7]: > 100 µM | GI50 [8]: 0.974 µM | TGI [8]: > 100 µM | GI50 [9]: 0.574 µM | TGI [9]: > 100 µM | GI50 [10]: 0.587 µM | TGI [10]: > 79.4 µM

COc1ncnc(S(=O)(=O)c2ccc(N=C3C(=O)N(CN4CCN(c5cc6c(cc5F)c(=O)c(C(=O)O)cn6C5CC5)CC4)c4ccc(Cl)cc43)cc2)c1OC
GI50 [1]: 8.75 µM | TGI [1]: > 50 µM | GI50 [2]: 8.78 µM | TGI [2]: 36.7 µM | GI50 [3]: 1.24 µM | TGI [3]: > 50 µM | GI50 [4]: > 50 µM | TGI [4]: > 50 µM | GI50 [5]: > 50 µM | TGI [5]: > 50 µM | GI50 [6]: > 50 µM | TGI [6]: > 50 µM | GI50 [7]: > 50 µM | TGI [7]: > 50 µM | GI50 [8]: 49 µM | TGI [8]: > 50 µM | GI50 [9]: 31.6 µM | TGI [9]: > 50 µM | GI50 [10]: > 50 µM | TGI [10]: > 50 µM

CCCCCCCCNCCC[C@@H](C)[C@H]1CC[C@H]2[C@@H]3[C@H](OCCCN)C[C@H]4C[C@H](OCCCN)CC[C@]4(C)[C@H]3C[C@H](OCCCN)[C@]12C
GI50 [1]: 1 µM | TGI [1]: 3.84 µM | GI50 [2]: 1.79 µM | TGI [2]: 7.36 µM | GI50 [3]: 2.01 µM | TGI [3]: 6.65 µM | GI50 [4]: 0.429 µM | TGI [4]: 8.46 µM | GI50 [5]: 1.72 µM | TGI [5]: 3.85 µM | GI50 [6]: 3.92 µM | TGI [6]: > 26.7 µM | GI50 [7]: 1.69 µM | TGI [7]: 5.24 µM | GI50 [8]: 1.5 µM | TGI [8]: 3.7 µM | GI50 [9]: 1.53 µM | TGI [9]: 7.16 µM | GI50 [10]: 2.26 µM | TGI [10]: 12.5 µM

Cc1ccc(S(=O)(=O)c2nc(-c3ccccc3)oc2S(C)=O)cc1 (stereo not given)
GI50 [1]: 1.5 µM | TGI [1]: 2.87 µM | GI50 [2]: 1.45 µM | TGI [2]: 2.79 µM | GI50 [3]: 1.72 µM | TGI [3]: 3.4 µM | GI50 [4]: 1.38 µM | TGI [4]: 2.77 µM | GI50 [5]: 1.47 µM | TGI [5]: 3.48 µM | GI50 [6]: 1.23 µM | TGI [6]: 3.17 µM | GI50 [7]: 3.35 µM | TGI [7]: 11.2 µM | GI50 [8]: 2.14 µM | TGI [8]: 4.14 µM | GI50 [9]: 6.87 µM | TGI [9]: 20.3 µM | GI50 [10]: 1.85 µM | TGI [10]: 3.47 µM

C=C1CCC2(C#N)[C@H]3[C@H](CC[C@@H]2C)[C@@H](C)C[C@@H](CC(C)(C)NC(=O)CN2CCC2=O)[C@H]13 (stereo not given in full)
GI50 [1]: 6.54 µM | TGI [1]: 20.1 µM | GI50 [2]: 16.2 µM | TGI [2]: 43.3 µM | GI50 [3]: 6.42 µM | TGI [3]: > 100 µM | GI50 [4]: 3.12 µM | TGI [4]: 27.5 µM | GI50 [5]: 11.3 µM | TGI [5]: 32.3 µM | GI50 [6]: 2.49 µM | TGI [6]: 9.64 µM | GI50 [7]: 9.58 µM | TGI [7]: 48.4 µM | GI50 [8]: 14.2 µM | TGI [8]: 42.3 µM | GI50 [9]: 12.3 µM | TGI [9]: 29 µM | GI50 [10]: 10.7 µM | TGI [10]: 22.5 µM

O=C1/C(=C/c2ccccc2)CN(C(=O)CCN2CCCC2)C/C1=C\c1ccccc1
TGI [1]: 3.45 µM | TGI [2]: 8.62 µM | TGI [3]: 7.15 µM | TGI [4]: 14.8 µM | TGI [5]: 0.511 µM | TGI [6]: 5.61 µM | TGI [7]: 6.69 µM | TGI [8]: 5.8 µM | TGI [9]: 16 µM | TGI [10]: 7.7 µM

COc1cc2c(cc1O)CC1c3c(cc(O)c(OC)c3-2)CCN1C (stereo not given)
TGI [1]: > 100 µM | TGI [2]: > 100 µM | TGI [3]: > 100 µM | TGI [4]: > 100 µM | TGI [5]: > 100 µM | TGI [6]: > 100 µM | TGI [7]: > 100 µM | TGI [8]: > 100 µM | TGI [9]: > 100 µM | TGI [10]: > 100 µM

O=C1CCC(N2C(=O)c3ccccc3C2=O)C(=O)N1 (stereo not given)
TGI [1]: > 100 µM | GI50 [2]: > 100 µM | TGI [2]: > 100 µM | TGI [3]: > 100 µM | TGI [4]: > 100 µM | TGI [5]: > 100 µM | TGI [6]: > 100 µM | TGI [7]: > 100 µM | TGI [8]: > 100 µM | TGI [9]: > 100 µM | TGI [10]: > 100 µM

Cc1c2cc(Cl)c3ccccc3c2c[n+]2ccccc12
GI50 [1]: 2.61 µM | TGI [1]: 13.3 µM | GI50 [2]: 23.1 µM | TGI [2]: > 100 µM | GI50 [3]: 2.46 µM | TGI [3]: > 100 µM | GI50 [4]: 2.04 µM | TGI [4]: 27.4 µM | GI50 [5]: 3.74 µM | TGI [5]: 24.2 µM | GI50 [6]: 0.544 µM | TGI [6]: 2.53 µM | GI50 [7]: 0.525 µM | TGI [7]: 2.76 µM | GI50 [8]: 0.364 µM | TGI [8]: 1.58 µM | GI50 [9]: 2.24 µM | TGI [9]: 16.1 µM | GI50 [10]: 29.7 µM | TGI [10]: > 100 µM
